Patent publication US4260623A, “Hexahydro-1-arylspiro(3H-oxazolo(3,4-A)pyridine-3,4'-piperidene) antidepressants, pharmaceutical compositions thereof and method of use thereof” (Warner-Lambert Company, priority 1979, dated 1981)

What follows are compounds tested on neuronal-uptake of norepinephrine (assay: inhibition of the neuronal-uptake of norepinephrine (tritium content of the hearts)). Conditions: Mus musculus, 1 h; at 50 mg/kg oral, male mice, heart; norepinephrine-3H i.v. one hour after dosing; vs vehicle control; read-out: % Inhibition of Amine Uptake, Norepinephrine.
Type: in vivo
Description: (§1) Int. Pharmacoldyn 225, 317-329 (1977)].
(§2) According to this procedure, male mice weighing approximately 25 grams are fasted overnight, then groups of five or more mice are dosed with the test compound or methocel vehicle at 50 mg/kg by oral route. After an interval of one hour, the mice are given an intravenous injection of a saline solution containing 0.5 μCi of norepinephrine-^3 H, 0.5 μCi of serotonin^14 C, and 1 mg/ml of ascorbic acid. The mice are then sacrificed about 15 minutes later, their hearts and spleens rinsed and weighed, and dissolved in a tissue solubilizer. The tritium content of the hearts and carbon-14 content of the spleen are determined by scintillation counting. The percent inhibition of uptake in comparison with the vehicle control group is then recorded.
`c1ccc(C2OC3(CCNCC3)N3CCCCC23)cc1` (stereo not shown) [Example 2, Hexahydro-1-phenylspiro[3H-oxazolo[3,4-a]pyridine-3,4'-piperidine]] gave an inhibition at 50 mg/kg of 70%.
Compound `CN1CCC2(CC1)OC(c1ccccc1)C1CCCCN12` (stereo not shown) [Example 3, Hexahydro-1'-methyl-1-phenylspiro[3H-oxazolo[3,4-a]pyridine-3,4'-piperidine]] has an inhibition at 50 mg/kg of 73%.
In the case of `Fc1cccc(C2OC3(CCN(Cc4ccccc4)CC3)N3CCCCC23)c1` (stereo not shown) [Example 4, hexahydro-1'-benzyl-1-(3-fluorophenyl)spiro[3H-oxazolo[3,4-a]pyridine-3,4'-piperidine]], the inhibition at 50 mg/kg was 58%.
Compound `Fc1cccc(C2OC3(CCNCC3)N3CCCCC23)c1` (stereo not shown) [Example 5, hexahydro-1-(3-fluorophenyl)spiro[3H-oxazolo[3,4-a]pyridine-3,4'-piperidine]] has an inhibition at 50 mg/kg of 70%.
`COc1ccccc1C1OC2(CCNCC2)N2CCCCC12` (stereo not shown) [Example 7, hexahydro-1-(2-methoxyphenyl)spiro[3H-oxazolo[3,4-a]pyridine-3,4'-piperidine]] gave an inhibition at 50 mg/kg of 67%.
Compound `FC(F)(F)c1cccc(C2OC3(CCNCC3)N3CCCCC23)c1` (stereo not shown) [Example 9, hexahydro-1-[3-(trifluoromethyl)phenyl]spiro[3H-oxazolo[3,4-a]pyridine-3,4'piperidine]] has an inhibition at 50 mg/kg of 64%.
`Fc1ccc(C2OC3(CCNCC3)N3CCCCC23)cc1` (stereo not shown) [Example 11, Hexahydro-1-(4-fluorophenyl)spiro[3H-oxazolo[3,4-a]pyridine-3,4'-piperidine]] gave an inhibition at 50 mg/kg of 73%.
Compound `Clc1ccc(C2OC3(CCN(Cc4ccccc4)CC3)N3CCCCC23)cc1` (stereo not shown) [Example 12, hexahydro-1'-benzyl-1-(4-chlorophenyl)spiro[3H-oxazolo[3,4-a]pyridine-3,4'-piperidine]] has an inhibition at 50 mg/kg of 59%.
For `CN1CCC2(CC1)OC(c1ccc(Cl)cc1)C1CCCCN12` (stereo not shown) [Example 13, hexahydro-1'-methyl-1-(4-chlorophenyl)spiro[3H-oxazolo[3,4-a]pyridine-3,4'-piperidine]], the inhibition at 50 mg/kg was 77%.
With `COc1ccc(C2OC3(CCNCC3)N3CCCCC23)cc1` (stereo not shown) [Example 14, Hexahydro-1-(4-methoxyphenyl)spiro[3H-oxazolo[3,4-a]pyridine-3,4'-piperidine]] the inhibition at 50 mg/kg was 57%.
`c1ccc(C2OC3(CCN(CC4CC4)CC3)N3CCCCC23)cc1` (stereo not shown) [Example 15, hexahydro-1'-(cyclopropylmethyl)-1-phenylspiro[3H-oxazolo[3,4-a]pyridine-3,4'-piperidine]] showed an inhibition at 50 mg/kg of 62%.

What follows are compounds tested on neuronal-uptake of serotonin (assay: inhibition of the neuronal-uptake of serotonin (carbon-14 content of the spleen)). Conditions: Mus musculus, 1 h, at 50 mg/kg oral, male mice, serotonin-14C i.v. one hour after dosing, vs vehicle control, read-out: % Inhibition of Amine Uptake, Serotonin.
Type: in vivo
Description: as §1, §2
`c1ccc(C2OC3(CCNCC3)N3CCCCC23)cc1` (stereo not shown) [Example 2, Hexahydro-1-phenylspiro[3H-oxazolo[3,4-a]pyridine-3,4'-piperidine]] was tested, and the inhibition at 50 mg/kg was 83%.
With `CN1CCC2(CC1)OC(c1ccccc1)C1CCCCN12` (stereo not shown) [Example 3, Hexahydro-1'-methyl-1-phenylspiro[3H-oxazolo[3,4-a]pyridine-3,4'-piperidine]] the inhibition at 50 mg/kg was 73%.
`Fc1cccc(C2OC3(CCN(Cc4ccccc4)CC3)N3CCCCC23)c1` (stereo not shown) [Example 4, hexahydro-1'-benzyl-1-(3-fluorophenyl)spiro[3H-oxazolo[3,4-a]pyridine-3,4'-piperidine]] showed an inhibition at 50 mg/kg of 79%.
Work on `Fc1cccc(C2OC3(CCNCC3)N3CCCCC23)c1` (stereo not shown) [Example 5, hexahydro-1-(3-fluorophenyl)spiro[3H-oxazolo[3,4-a]pyridine-3,4'-piperidine]] yielded an inhibition at 50 mg/kg of 89%.
In the case of `COc1ccccc1C1OC2(CCNCC2)N2CCCCC12` (stereo not shown) [Example 7, hexahydro-1-(2-methoxyphenyl)spiro[3H-oxazolo[3,4-a]pyridine-3,4'-piperidine]], the inhibition at 50 mg/kg was 71%.
In the case of `FC(F)(F)c1cccc(C2OC3(CCNCC3)N3CCCCC23)c1` (stereo not shown) [Example 9, hexahydro-1-[3-(trifluoromethyl)phenyl]spiro[3H-oxazolo[3,4-a]pyridine-3,4'piperidine]], the inhibition at 50 mg/kg was 86%.
In the case of `Fc1ccc(C2OC3(CCNCC3)N3CCCCC23)cc1` (stereo not shown) [Example 11, Hexahydro-1-(4-fluorophenyl)spiro[3H-oxazolo[3,4-a]pyridine-3,4'-piperidine]], the inhibition at 50 mg/kg was 89%.
`Clc1ccc(C2OC3(CCN(Cc4ccccc4)CC3)N3CCCCC23)cc1` (stereo not shown) [Example 12, hexahydro-1'-benzyl-1-(4-chlorophenyl)spiro[3H-oxazolo[3,4-a]pyridine-3,4'-piperidine]] showed an inhibition at 50 mg/kg of 84%.
In the case of `CN1CCC2(CC1)OC(c1ccc(Cl)cc1)C1CCCCN12` (stereo not shown) [Example 13, hexahydro-1'-methyl-1-(4-chlorophenyl)spiro[3H-oxazolo[3,4-a]pyridine-3,4'-piperidine]], the inhibition at 50 mg/kg was 91%.
`COc1ccc(C2OC3(CCNCC3)N3CCCCC23)cc1` (stereo not shown) [Example 14, Hexahydro-1-(4-methoxyphenyl)spiro[3H-oxazolo[3,4-a]pyridine-3,4'-piperidine]] was tested, and the inhibition at 50 mg/kg was 89%.
For `c1ccc(C2OC3(CCN(CC4CC4)CC3)N3CCCCC23)cc1` (stereo not shown) [Example 15, hexahydro-1'-(cyclopropylmethyl)-1-phenylspiro[3H-oxazolo[3,4-a]pyridine-3,4'-piperidine]], the inhibition at 50 mg/kg was 77%.
